# Laboratory results from US12187723B2 (BRISTOL-MYERS SQUIBB COMPANY, priority 2019, dated 2025).
# Key:
# [1] = biological target: T1, human TLR7 (Homo sapiens, UniProt Q9NYK1); experiment: TLR7 inhibition reporter assay (HEK-Blue SEAP); assay type: cell-based; conditions: HEK-Blue cells overexpressing human TLR7, gardiquimod 7.5 μM, 22 hour incubation
# T1 construct: host or cells: HEK-Blue cells
# T1 sequence (Q9NYK1 27-1049): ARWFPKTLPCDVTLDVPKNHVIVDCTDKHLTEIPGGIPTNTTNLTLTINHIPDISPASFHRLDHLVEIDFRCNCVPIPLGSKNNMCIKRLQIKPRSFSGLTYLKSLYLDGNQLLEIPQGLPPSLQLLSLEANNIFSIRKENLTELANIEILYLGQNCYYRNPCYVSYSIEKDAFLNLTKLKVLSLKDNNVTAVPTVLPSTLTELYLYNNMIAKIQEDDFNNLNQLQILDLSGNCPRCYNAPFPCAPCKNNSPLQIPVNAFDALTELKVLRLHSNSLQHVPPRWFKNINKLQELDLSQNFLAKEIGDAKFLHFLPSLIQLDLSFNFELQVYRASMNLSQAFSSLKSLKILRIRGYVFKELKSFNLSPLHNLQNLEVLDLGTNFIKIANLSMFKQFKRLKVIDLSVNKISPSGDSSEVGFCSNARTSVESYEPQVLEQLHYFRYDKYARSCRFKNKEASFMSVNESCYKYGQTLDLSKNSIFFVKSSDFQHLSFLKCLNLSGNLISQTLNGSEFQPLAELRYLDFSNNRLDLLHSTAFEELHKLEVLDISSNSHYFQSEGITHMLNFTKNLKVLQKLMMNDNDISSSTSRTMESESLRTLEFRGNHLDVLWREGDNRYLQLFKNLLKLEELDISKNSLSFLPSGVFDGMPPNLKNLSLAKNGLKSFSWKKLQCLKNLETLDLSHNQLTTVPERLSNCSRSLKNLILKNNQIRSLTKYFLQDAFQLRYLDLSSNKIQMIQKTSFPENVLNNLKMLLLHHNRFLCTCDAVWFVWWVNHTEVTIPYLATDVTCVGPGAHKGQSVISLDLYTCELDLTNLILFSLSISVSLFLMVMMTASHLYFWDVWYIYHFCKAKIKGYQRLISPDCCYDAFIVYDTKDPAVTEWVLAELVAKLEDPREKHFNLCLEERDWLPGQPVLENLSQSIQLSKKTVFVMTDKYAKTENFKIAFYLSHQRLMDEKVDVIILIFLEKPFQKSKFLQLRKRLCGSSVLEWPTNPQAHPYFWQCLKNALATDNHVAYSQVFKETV
# In short: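 HEK-Blue reporter cells (15,000/well TLR7, 20,000 TLR8) exposed to compound over 0.05 nM–50 μM, agonist-stimulated (R848 for TLR8, gardiquimod for TLR7), 22 h at 37 °C, 5% CO2. SEAP read with HEK-Blue Detection; % inhibition relative to agonist-plus-DMSO and known-inhibitor controls.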
# [2] = biological target: T2, human TLR8 (Homo sapiens, UniProt Q9NR97); experiment: TLR8 inhibition reporter assay (HEK-Blue SEAP); assay type: cell-based; conditions: HEK-Blue cells overexpressing human TLR8, R848 15.9 μM, 22 hour incubation
# T2 construct: host or cells: HEK-Blue cells
# T2 sequence (Q9NR97 27-1041): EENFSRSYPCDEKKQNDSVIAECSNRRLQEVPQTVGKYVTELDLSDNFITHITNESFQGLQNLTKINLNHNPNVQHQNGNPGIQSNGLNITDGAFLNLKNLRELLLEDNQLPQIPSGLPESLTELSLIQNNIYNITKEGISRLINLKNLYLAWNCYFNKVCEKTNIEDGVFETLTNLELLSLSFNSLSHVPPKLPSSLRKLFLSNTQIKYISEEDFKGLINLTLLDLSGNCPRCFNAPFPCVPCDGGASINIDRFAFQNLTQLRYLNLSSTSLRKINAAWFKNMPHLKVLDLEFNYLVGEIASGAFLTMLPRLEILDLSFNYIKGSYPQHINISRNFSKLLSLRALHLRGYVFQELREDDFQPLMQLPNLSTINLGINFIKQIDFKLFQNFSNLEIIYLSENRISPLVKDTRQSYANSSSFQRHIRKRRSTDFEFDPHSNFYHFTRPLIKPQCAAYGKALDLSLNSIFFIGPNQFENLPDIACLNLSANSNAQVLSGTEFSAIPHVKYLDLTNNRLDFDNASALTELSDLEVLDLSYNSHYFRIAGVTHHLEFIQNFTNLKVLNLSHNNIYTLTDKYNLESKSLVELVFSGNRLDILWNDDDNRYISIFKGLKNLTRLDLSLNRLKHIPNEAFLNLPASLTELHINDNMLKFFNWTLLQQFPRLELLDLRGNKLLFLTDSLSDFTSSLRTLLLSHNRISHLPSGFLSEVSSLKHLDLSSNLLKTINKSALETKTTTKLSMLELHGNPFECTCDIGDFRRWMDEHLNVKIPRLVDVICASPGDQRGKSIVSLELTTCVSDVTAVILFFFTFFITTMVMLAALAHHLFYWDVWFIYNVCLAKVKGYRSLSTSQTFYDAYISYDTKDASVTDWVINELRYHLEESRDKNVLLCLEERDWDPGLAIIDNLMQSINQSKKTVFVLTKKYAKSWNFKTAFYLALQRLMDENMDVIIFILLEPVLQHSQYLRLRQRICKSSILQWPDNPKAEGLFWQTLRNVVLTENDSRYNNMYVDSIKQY
# In short: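 Agonists used: gardiquimod 7.5 μM (TLR7), R848 15.9 μM (TLR8), ODN2006 5 nM (TLR9), added after 30 min room-temperature compound pre-treatment (0.05 nM–50 μM) of receptor-overexpressing HEK-Blue cells. SEAP reporter (NF-κB/AP-1 driven) read after 22 h at 37 °C; inhibition scaled between agonist+DMSO and reference-inhibitor wells.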
IC50 [1] [nM],IC50 [2] [nM],SMILES
13.4,13.7,"CCc1cc2c(cc1-c1cc(OC)c3ncnn3c1)[nH]c(=O)n2[C@@H]1CCCN(C2CCCOC2)C1 (stereo partly drawn) [Example 215, 6-ethyl-5-(8-methoxy-[1,2,4]triazolo[1,5-a]pyridin-6-yl)-1-((3R)-1-(tetrahydro-2H-pyran-3-yl)piperidin-3-yl)-1,3-dihydro-2H-benzo[d]imidazol-2-one]"
14.6,26.4,"COc1cc(-c2cc3[nH]c(=O)n([C@@H]4CCCN(C5CCOC5)C4)c3cc2C(C)C)cn2ncnc12 (stereo partly drawn) [Example 216, 6-isopropyl-5-(8-methoxy-[1,2,4]triazolo[1,5-a]pyridin-6-yl)-1-((3R)-1-(tetrahydrofuran-3-yl)piperidin-3-yl)-1,3-dihydro-2H-benzo[d]imidazol-2-one]"
11.2,5.4,"COc1cc(-c2cc3[nH]c(=O)n([C@@H]4CCCN(C5CCOC5)C4)c3cc2C(C)C)cn2ncnc12 (stereo partly drawn) [Example 217, 6-isopropyl-5-(8-methoxy-[1,2,4]triazolo[1,5-a]pyridin-6-yl)-1-((3R)-1-(tetrahydrofuran-3-yl)piperidin-3-yl)-1,3-dihydro-2H-benzo[d]imidazol-2-one]"
244,100,"COc1cc(-c2cc3[nH]c(=O)n([C@H]4CCCN(CC(N)=O)C4)c3cc2C(C)C)cn2ncnc12 [Example 220, (S)-2-(3-(6-isopropyl-5-(8-methoxy-[1,2,4]triazolo[1,5-a]pyridin-6-yl)-2-oxo-2,3-dihydro-1H-benzo[d]imidazol-1-yl)piperidin-1-yl)acetamide]"
11.3,5.67,"COCCN1CCC[C@H](n2c(=O)[nH]c3cc(-c4cc(OC)c5ncnn5c4)c(C(C)C)cc32)C1 [Example 221, (S)-6-isopropyl-5-(8-methoxy-[1,2,4]triazolo[1,5-a]pyridin-6-yl)-1-(1-(2-methoxyethyl)piperidin-3-yl)-1,3-dihydro-2H-benzo[d]imidazol-2-one]"
138,53.2,"COc1cc(-c2cc3[nH]c(=O)n([C@H]4CCCN(CCS(C)(=O)=O)C4)c3cc2C(C)C)cn2ncnc12 [Example 222, (S)-6-isopropyl-5-(8-methoxy-[1,2,4]triazolo[1,5-a]pyridin-6-yl)-1-(1-(2-(methylsulfonyl)ethyl)piperidin-3-yl)-1,3-dihydro-2H-benzo[d]imidazol-2-one]"
16.9,9.01,"COCCN1CCC(n2c(=O)[nH]c3cc(-c4cc(OC)c5ncnn5c4)c(C(C)C)cc32)CC1 [Example 223, 6-isopropyl-5-(8-methoxy-[1,2,4]triazolo[1,5-a]pyridin-6-yl)-1-(1-(2-methoxyethyl)piperidin-4-yl)-1,3-dihydro-2H-benzo[d]imidazol-2-one]"
82.4,25.5,"COc1cc(-c2cc3[nH]c(=O)n(C4CCN(CCS(C)(=O)=O)CC4)c3cc2C(C)C)cn2ncnc12 [Example 224, 6-isopropyl-5-(8-methoxy-[1,2,4]triazolo[1,5-a]pyridin-6-yl)-1-(1-(2-(methylsulfonyl)ethyl)piperidin-4-yl)-1,3-dihydro-2H-benzo[d]imidazol-2-one]"
1.13,4.15,"COCCN1CCC[C@@H](n2c(=O)[nH]c3cc(-c4cc(OC)c5ncnn5c4)c(C(C)C)cc32)C1 [Example 226, (R)-6-isopropyl-5-(8-methoxy-[1,2,4]triazolo[1,5-a]pyridin-6-yl)-1-(1-(2-methoxyethyl)piperidin-3-yl)-1,3-dihydro-2H-benzo[d]imidazol-2-one]"
2.86,4.42,"CCc1cc2c(cc1-c1cc(OC)c3ncnn3c1)[nH]c(=O)n2[C@@H]1CCCN(CCOC)C1 [Example 227, (R)-6-ethyl-5-(8-methoxy-[1,2,4]triazolo[1,5-a]pyridin-6-yl)-1-(1-(2-methoxyethyl)piperidin-3-yl)-1,3-dihydro-2H-benzo[d]imidazol-2-one]"
34.9,38.7,"CCc1cc2c(cc1-c1cc(OC)c3ncnn3c1)[nH]c(=O)n2[C@@H]1CCCN(C(=O)CN(C)C)C1 [Example 228, (R)-1-(1-(dimethylglycyl)piperidin-3-yl)-6-ethyl-5-(8-methoxy-[1,2,4]triazolo[1,5-a]pyridin-6-yl)-1,3-dihydro-2H-benzo[d]imidazol-2-one]"
1.68,0.81,"COc1cc(-c2cc3[nH]c(=O)n(C4CCC(N5CCCC5)CC4)c3cc2C(C)C)cn2ncnc12 (stereo not shown) [Example 231, 6-isopropyl-5-(8-methoxy-[1,2,4]triazolo[1,5-a]pyridin-6-yl)-1-(4-(pyrrolidin-1-yl)cyclohexyl)-1,3-dihydro-2H-benzo[d]imidazol-2-one]"
1.4,0.44,"COc1cc(-c2cc3[nH]c(=O)n(C4CCC(N5CCCC5)CC4)c3cc2C(C)C)cn2ncnc12 (stereo not shown) [Example 232, 6-isopropyl-5-(8-methoxy-[1,2,4]triazolo[1,5-a]pyridin-6-yl)-1-(4-(pyrrolidin-1-yl)cyclohexyl)-1,3-dihydro-2H-benzo[d]imidazol-2-one]"
1.31,0.33,"COc1cc(-c2cc3[nH]c(=O)n(C4CCC(N5CC(OC)C5)CC4)c3cc2C(C)C)cn2ncnc12 (stereo not shown) [Example 237, 6-isopropyl-5-(8-methoxy-[1,2,4]triazolo[1,5-a]pyridin-6-yl)-1-(4-(3-methoxyazetidin-1-yl)cyclohexyl)-1,3-dihydro-2H-benzo[d]imidazol-2-one]"
0.81,0.26,"COc1cc(-c2cc3[nH]c(=O)n(C4CCC(N5CC(OC)C5)CC4)c3cc2C(C)C)cn2ncnc12 (stereo not shown) [Example 238, 6-isopropyl-5-(8-methoxy-[1,2,4]triazolo[1,5-a]pyridin-6-yl)-1-(4-(3-methoxyazetidin-1-yl)cyclohexyl)-1,3-dihydro-2H-benzo[d]imidazol-2-one]"
1.69,0.21,"COc1cc(-c2cc3[nH]c(=O)n(C4CCC(N5CCC6(CC5)COC6)CC4)c3cc2C(C)C)cn2ncnc12 (stereo not shown) [Example 239, 1-(4-(2-oxa-7-azaspiro[3.5]nonan-7-yl)cyclohexyl)-6-isopropyl-5-(8-methoxy-[1,2,4]triazolo[1,5-a]pyridin-6-yl)-1,3-dihydro-2H-benzo[d]imidazol-2-one]"
3.52,0.13,"COc1cc(-c2cc3[nH]c(=O)n(C4CCC(N5CCC6(CC5)COC6)CC4)c3cc2C(C)C)cn2ncnc12 (stereo not shown) [Example 240, 1-(4-(2-oxa-7-azaspiro[3.5]nonan-7-yl)cyclohexyl)-6-isopropyl-5-(8-methoxy-[1,2,4]triazolo[1,5-a]pyridin-6-yl)-1,3-dihydro-2H-benzo[d]imidazol-2-one]"
